Experimental data: patent publication US20250206755A1, “ANTIMICROBIAL AGENTS” (RUTGERS, THE STATE UNIVERSITY OF NEW JERSEY, priority 2012, published 2025)
≈ marks a conversion by molar mass, not a printed value.

Columns and labels:
[1] = tested on: MSSA; assay: Antibacterial assay, broth microdilution MIC (Test A); format: cell-based; settings: Staphylococcus aureus, MIC values may be lower as solubility and aggregate formation may reduce observed activity
Experimental: (§1) Antibacterial activity can be determined as per Clinical and Laboratory Standards Institute (CLSI) guidelines using a broth microdilution assay in which log-phase bacteria are grown at 37° C. in appropriate medium containing two-fold serial dilutions of a compound to yield final concentrations ranging from 256 to 0.06 μg/mL. For determination of minimal inhibitory concentration (MIC) values, bacterial growth is monitored after 24 to 48 hours by measuring optical density at 600 nm.

[2] = tested on: MRSA; assay: as above; format: cell-based; settings: Staphylococcus aureus, MIC values may be lower as solubility and aggregate formation may reduce observed activity
Experimental: as §1

[3] = tested on: S. aureus ATCC 19636 (MSSA); assay: In vivo efficacy, mouse peritonitis model of systemic infection (Test D), MSSA; settings: mice
Experimental: Antistaphylococcal efficacy in vivo was assessed in a mouse peritonitis model of systemic infection with S. aureus ATCC 19636 (MSSA) or ATCC 43300 (MRSA). These studies were conducted in full compliance with the standards established by the US National Research Council's Guide for the Care and Use of Laboratory Animals, and were approved by the Institutional Animal Care and Use Committee (IACUC) of Rutgers University. Groups of 4-6 female Swiss-Webster mice with an average weight of 25 g were infected intraperitoneally with a lethal inoculum of each bacterial strain in saline. The inoculum of S. aureus ATCC 43300 contained 1.0×10^8 CFUs/mL of bacteria, while the inoculum of S. aureus ATCC 19636 contained 0.8×10^7 CFUs/mL of bacteria. All the inocula also contained porcine mucin (Sigma-Aldrich, Co.) at a (w/v) percentage of 1.5% (in ATCC 19636 inocula) or 5% (in the ATCC 43300 inoculum). The differing compositions of the inocula of these S. aureus strains were selected based on the virulence of each strain, with MSSA ATCC 19636 being the more virulent strain and MRSA ATCC 43300 being the less virulent strain.
All compound and vehicle intravenous (i.v.) administrations were by tail vein injection, with 17 being formulated at 2.0 mg/mL and 44 being formulated at both 2.0 and 3.0 mg/ml in 10 mM citrate (pH 2.6).
In the MSSA ATCC 19636 experiments, the first dose of compound was administered 10 minutes after infection, with subsequent doses being administered at 12-minute intervals thereafter unless otherwise noted. In the MRSA studies, the first dose of compound was administered one hour after infection, with subsequent doses being administered at 12-minute intervals thereafter unless otherwise indicated.
The body temperatures of all mice were monitored for a period of 5 days after infection. Body temperatures were recorded at the Xiphoid process using a noninvasive infrared thermometer (Braintree Scientific, Inc., Braintree, MA). Infected mice with body temperatures ≤28.9° C. were viewed as being unable to recover from the infection and were euthanized.

[4] = tested on: S. aureus ATCC 43300 (MRSA); assay: In vivo efficacy, mouse peritonitis model of systemic infection (Test D), MRSA; settings: mice, p.o., total dose 4.8 mg/mouse
[5] = i.v., 1x, total dose 0.6 mg/mouse, first dose immediately prior to infection
[6] = i.v., 2x, total dose 1.2 mg/mouse, first dose immediately prior to infection, subsequent doses 15 minutes following
[7] = p.o., 1x, total dose 0.8 mg/mouse, first dose 5 minutes prior to infection
[8] = p.o., 2x, total dose 1.6 mg/mouse, first dose 5 minutes prior to infection, subsequent doses 15 minutes apart
[9] = p.o., 4x, total dose 3.2 mg/mouse, first dose 5 minutes prior to infection, subsequent doses 15 minutes apart
[10] = 6x (no footnote: first dose one hour after infection, 12-minute intervals)
[11] = 6x, first dose 5 minutes prior to infection, subsequent doses 12 minutes apart
[12] = 6x, first dose 10 minutes post-infection, subsequent doses 12 minutes apart
[13] = i.v., 2x, total dose 1.8 mg/mouse
[14] = p.o., 1x, total dose 0.8 mg/mouse
[15] = p.o., 2x, total dose 1.6 mg/mouse
[16] = p.o., 3x, total dose 2.4 mg/mouse
[17] = p.o., 4x, total dose 3.2 mg/mouse

For CCC(=O)NC(=O)c1c(F)ccc(OCc2nc3cc(Cl)ccc3s2)c1F [Example 5], the MIC [1] was 2 µg/mL (≈ 4.87 µM) and the MIC [2] was 2 µg/mL (≈ 4.87 µM).
With CN1CCC(C(=O)NC(=O)c2c(F)ccc(OCc3nc4cc(Cl)cnc4s3)c2F)CC1 [Example 17] the “Survival (%) 24 Hrs” value [3, 5] was 0%, the “Survival (%) 48 Hrs” value [3, 5] was 0% and the “Survival (%) 72 Hrs” value [3, 5] was 0%. The “Survival (%) 24 Hrs” value [3, 6] was 0%, the “Survival (%) 48 Hrs” value [3, 6] was 0% and the “Survival (%) 72 Hrs” value [3, 6] was 0%. For the same molecule, the “Survival (%) 24 Hrs” value [3, 7] was 0%, the “Survival (%) 48 Hrs” value [3, 7] was 0% and the “Survival (%) 72 Hrs” value [3, 7] was 0%. The “Survival (%) 24 Hrs” value [3, 8] was 0%, the “Survival (%) 48 Hrs” value [3, 8] was 0% and the “Survival (%) 72 Hrs” value [3, 8] was 0%. For the same molecule, the “Survival (%) 24 Hrs” value [3, 9] was 100%, the “Survival (%) 48 Hrs” value [3, 9] was 100% and the “Survival (%) 72 Hrs” value [3, 9] was 100%. For the same molecule, the “Survival (%) 48 Hrs” value [4, 10] was 50%, the “Survival (%) 72 Hrs” value [4, 10] was 50% and the “Survival (%) 24 Hrs” value [4, 11] was 100%. The “Survival (%) 48 Hrs” value [4, 11] was 100%, the “Survival (%) 72 Hrs” value [4, 11] was 100% and the “Survival (%) 24 Hrs” value [4, 12] was 100%. For the same molecule, the “Survival (%) 48 Hrs” value [4, 12] was 100% and the “Survival (%) 72 Hrs” value [4, 12] was 100%.
For CN1CCC(C(=O)NC(=O)c2c(F)ccc(OCc3nc4cc(C(F)(F)F)cnc4s3)c2F)CC1 [Example 44], the “Survival (%) 24 Hrs” value [3, 13] was 100%, the “Survival (%) 48 Hrs” value [3, 13] was 100% and the “Survival (%) 72 Hrs” value [3, 13] was 100%. For the same molecule, the “Survival (%) 24 Hrs” value [3, 14] was 50%, the “Survival (%) 48 Hrs” value [3, 14] was 50% and the “Survival (%) 72 Hrs” value [3, 14] was 50%. The “Survival (%) 24 Hrs” value [3, 15] was 100%, the “Survival (%) 48 Hrs” value [3, 15] was 100% and the “Survival (%) 72 Hrs” value [3, 15] was 100%. For the same molecule, the “Survival (%) 24 Hrs” value [3, 16] was 100%, the “Survival (%) 48 Hrs” value [3, 16] was 100% and the “Survival (%) 72 Hrs” value [3, 16] was 100%. The “Survival (%) 24 Hrs” value [3, 17] was 100%, the “Survival (%) 48 Hrs” value [3, 17] was 100% and the “Survival (%) 72 Hrs” value [3, 17] was 100%.
